The test system of one assay is B. subtilis. Description: Antibacterial testing, growth in LB in 96-well plates (OD 595 nm). Conditions: B. subtilis W23.
For assay [1], the system named is Mycobacterium tuberculosis galactosyltransferase GlfT2. Nature of the assay: Galactosyltransferase assay ([14C]Gal incorporation into Galf(β1→6)Galf-O-C8 acceptor, membranes and cell wall fraction). The format is biochemical. The conditions noted are these: read-out: Percentage inhibition of Mt GTase (Mycobacterium tuberculosis galactosyl transferase). From the text:
The arabinogalactan cell wall polymer of M. tuberculosis is biosynthesised through the action of a series of glycosyltransferases,[16] several of which use UDP-sugar substrates, and therefore might be inhibited by this class of compound. We have characterised a UDP-galactose-dependent galactosyltransferase activity GlfT2, which can be assayed using specific neoglycolipid acceptors in the presence of membranes and Galf(β1→6)Galf-O-C8 resulting in excellent [[14]C]Galf incorporation from UDP-[^14C]Galp, following endogenous conversion to UDP-[^14C]Galf and transferase activity (Fig. 4).[17] […] The complete chemical characterisation of the enzymatically synthesised products along with the identity of the galactosyltransferase gene product were previously reported.[17]
Liquid cultures of Mycobacterium smegmatis mc^2155 were grown at 37 °C in Luria Bertoni (LB) broth medium (Difco) supplemented with 0.05% Tween 80, biomass harvested, washed with phosphate buffered saline (PBS) and stored at −20 °C until further use. M. smegmatis cells (10 g wet weight) were washed and re-suspended in 30 ml of buffer A, containing 50 mM MOPS (adjusted to pH 8.0 with KOH), 5 mM β-mercaptoethanol and 10 mM MgCl2 at 4 °C and subjected to probe sonication (Soniprep 150, MSE Sanyo Gallenkamp, Crawley, Sussex, UK; 1 cm probe) for a total time of 10 min in 60 s pulses and 90 s cooling intervals between pulses. The sonicate centrifuged at 27,000g for 60 min at 4 °C. The resulting mycobacterial cell wall pellets were re-suspended in buffer A. Percoll (Pharmacia, Sweden) was added to yield a 60% suspension and centrifuged at 27,000g for 1 h at 4 °C. The upper, particulate diffuse cell wall enzymatically active (P60) band was collected and washed three times with buffer A and re-suspended in buffer A at a final protein concentration of 10 mg/ml. Membrane fractions were obtained by centrifugation of the 27,000g supernatant at 100,000g for 1 h at 4 °C. The supernatant was carefully removed and the membranes gently re-suspended in buffer A at a protein concentration of 20 mg/ml. Protein concentrations were determined using the BCA Protein Assay Reagent kit (Pierce Europe, Oud-Beijerland, Netherlands).
The reaction mixtures were then incubated at 37 °C for 1 h. A CHCl3/CH3OH (1:1, 533 μl) solution was then added to the incubation tubes and the entire contents centrifuged at 18,000g. The supernatant was recovered and dried under a stream of argon and re-suspended in C2H5OH/H2O (1:1, 1 ml) and loaded onto a pre-equilibrated (C2H5OH/H2O [1:1]) 1 ml Whatmann strong anion exchange (SAX) cartridge which was washed with 3 ml of ethanol. The eluate was dried and the resulting products partitioned between the two phases arising from a mixture of n-butanol (3 ml) and H20 (3 ml). The resulting organic phase was recovered following centrifugation at 3,500g and the aqueous phase was again extracted twice with 3 ml of n-butanol saturated water, the pooled extracts were back-washed twice with water saturated with n-butanol (3 ml). The n-butanol–saturated water fraction was dried and re-suspended in 200 μl of n-butanol. The total cpm of radiolabeled material extractable into the n-butanol phase was measured by scintillation counting using 10% of the labelled material and 10 ml of EcoScintA (National Diagnostics, Atlanta). The incorporation of [^14C]Gal was determined by subtracting counts present in control assays (incubation of the reaction components in the absence of the compounds).

The target in the next assay is E. coli MurG (Escherichia coli, UniProt P17443). Description: Coupled radiochemical MraY/MurG assay ([3H]-UDPGlcNAc incorporation into lipid intermediate II). The conditions noted are these: for inhibition at 1000 µM: read-out: Percentage inhibition of E. coli MurG.
E. coli MurG, sequence (P17443 whole entry): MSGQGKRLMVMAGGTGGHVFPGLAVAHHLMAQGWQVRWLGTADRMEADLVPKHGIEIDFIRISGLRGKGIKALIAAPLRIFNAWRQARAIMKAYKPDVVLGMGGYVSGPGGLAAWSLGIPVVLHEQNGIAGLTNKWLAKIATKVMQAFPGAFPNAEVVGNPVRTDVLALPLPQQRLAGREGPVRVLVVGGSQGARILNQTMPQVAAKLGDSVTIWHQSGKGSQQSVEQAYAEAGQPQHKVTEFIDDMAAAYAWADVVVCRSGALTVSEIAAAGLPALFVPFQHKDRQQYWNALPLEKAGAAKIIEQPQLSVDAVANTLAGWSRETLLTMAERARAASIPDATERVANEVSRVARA
In a further assay the test system is Pseudomonas putida. Description: Antibacterial testing, growth in LB in 96-well plates (OD 595 nm). Conditions: ATCC 33015.
The next assay has as its system Micrococcus luteus. The description is as above. Conditions: read-out: Growth inhibition of M. luteus.
The next assay has as its system E. coli. The description is as above. The format is cell-based, Escherichia coli. Conditions: E. coli BL21.

We go through 14 molecules from PMC3034214, “Inhibition of Escherichia coli glycosyltransferase MurG and Mycobacterium tuberculosis Gal transferase by uridine-linked transition state mimics” (Bioorganic & Medicinal Chemistry, 2010).

As a reminder, the inhibition is the relative decrease from the control value, in per cent. The IC50 is the point on the concentration scale where inhibition reaches its midpoint. High values mean a need for much substance, low ones inhibition by little substance.

Mycobacterium tuberculosis galactosyltransferase GlfT2, sequence (A0R628 whole entry): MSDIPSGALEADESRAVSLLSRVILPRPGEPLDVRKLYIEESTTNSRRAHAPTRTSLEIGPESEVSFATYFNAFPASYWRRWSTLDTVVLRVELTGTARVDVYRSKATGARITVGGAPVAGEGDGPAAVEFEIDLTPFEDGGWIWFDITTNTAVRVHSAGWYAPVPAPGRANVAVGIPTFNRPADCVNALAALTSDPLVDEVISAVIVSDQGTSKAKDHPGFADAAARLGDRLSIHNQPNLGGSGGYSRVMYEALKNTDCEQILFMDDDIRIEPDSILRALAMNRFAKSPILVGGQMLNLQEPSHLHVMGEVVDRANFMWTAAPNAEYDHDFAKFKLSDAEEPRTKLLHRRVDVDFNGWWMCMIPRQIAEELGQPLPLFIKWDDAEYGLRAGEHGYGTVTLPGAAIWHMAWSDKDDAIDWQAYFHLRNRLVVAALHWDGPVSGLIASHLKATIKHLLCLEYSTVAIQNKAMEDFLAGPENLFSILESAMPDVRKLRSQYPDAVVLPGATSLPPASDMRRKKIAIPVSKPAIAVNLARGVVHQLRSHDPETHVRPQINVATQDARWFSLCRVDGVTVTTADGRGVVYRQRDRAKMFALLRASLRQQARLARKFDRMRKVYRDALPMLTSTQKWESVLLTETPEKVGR
Protocol for B. subtilis: (§1) The following procedure was performed using P. putida (ATCC 33015), M. luteus (ATCC 13513), E. coli BL21 and B. subtilis W23. A single colony of the bacterial strain was picked from an LB agar plate and grown in 10 ml of sterile LB medium overnight at 37 °C. 1 ml of this culture was then used to inoculate 50 ml of sterile LB medium at 2%. Hundred microlitres of this 2% culture was pipetted into each well of a 96-well plate. Hundred microlitres of sterile water or sterile aqueous inhibitor solution (200 μg/ml or 1 mg/ml) were then pipetted into each well and the 96-well plates were incubated at 37 °C. Bacterial growth was monitored by measuring the OD at 595 nm at 3, 6 and 24 h.
Protocol for Micrococcus luteus: as §1
Protocol for Pseudomonas putida: as §1

For the molecule `COc1ccccc1[C@H]1N[C@@](C)(C(=O)NCC(=O)NC[C@H]2O[C@@H](n3ccc(=O)[nH]c3=O)[C@H](O)[C@@H]2O)[C@H]2C(=O)N(c3ccccc3)C(=O)[C@@H]12` (mixture of isomers) [13b], in the assay with B. subtilis, the “Antibacterial activity against B. subtilis (in words)” value is “no effects”. The inhibition at 1000 µM in assay [1] was 0%. In addition, on E. coli MurG, the 50% inhibitory concentration (IC50) worked out at 0.4 mM and the inhibition at 1000 µM came to 85%. In addition, the “Antibacterial activity against Pseudomonas putida (in words)” value in the assay with Pseudomonas putida was “no effects”. For the same molecule, in the assay with Micrococcus luteus, the inhibition at 100 µg/mL stood at 50%. In addition, the “Antibacterial activity against E. coli (in words)” value in the assay with E. coli is given as “no effects”.

As for `COc1cccc([C@H]2N[C@@](C)(C(=O)NCC(=O)NC[C@H]3O[C@@H](n4ccc(=O)[nH]c4=O)[C@H](O)[C@@H]3O)[C@H]3C(=O)N(c4ccccc4)C(=O)[C@@H]23)c1OC` (mixture of isomers) [13c], the inhibition at 1000 µM (in assay [1]; at E. coli MurG) was 0% each time.

Regarding `C[C@@]1(C(=O)NCC(=O)NC[C@H]2O[C@@H](n3ccc(=O)[nH]c3=O)[C@H](O)[C@@H]2O)N[C@H](C(O)CO)[C@@H]2C(=O)N(c3ccccc3)C(=O)[C@@H]21` (mixture of isomers) [13e], the inhibition at 1000 µM (in assay [1]; on E. coli MurG) was 0% each time.

On to `COC(=O)[C@H]1[C@@H](c2ccccc2)N[C@@](C)(C(=O)NCC(=O)NC[C@H]2O[C@@H](n3ccc(=O)[nH]c3=O)[C@H](O)[C@@H]2O)[C@@H]1C(=O)OC` (mixture of isomers) [14a], for which, on E. coli MurG, the inhibition at 1000 µM was 0%.

Regarding `COC(=O)[C@H]1[C@@H](c2ccccc2OC)N[C@@](C)(C(=O)NCC(=O)NC[C@H]2O[C@@H](n3ccc(=O)[nH]c3=O)[C@H](O)[C@@H]2O)[C@@H]1C(=O)OC` (mixture of isomers) [14b], in assay [1], the inhibition at 1000 µM came out at 0%. For the same molecule, on E. coli MurG, the IC50 is more than 5 mM and the inhibition at 1000 µM turned out to be 32%.

In the case of `COC(=O)C1C(C(O)CO)NC2(C)C(=O)N(CC(=O)NCC3OC(n4ccc(=O)[nH]c4=O)C(O)C3O)C(=O)C12` (mixture of isomers) [15e], on E. coli MurG, the IC50 is more than 5 mM and the inhibition at 1000 µM turned out to be 27%.

For the molecule `COC(=O)[C@H]1[C@@H](c2ccccc2OC)N[C@@](C)(C(=O)N2CCC[C@H]2C(=O)NC[C@H]2O[C@@H](n3ccc(=O)[nH]c3=O)[C@H](O)[C@@H]2O)[C@H]1C(=O)OC` (mixture of isomers) [20b], the inhibition at 1000 µM (in assay [1]; at E. coli MurG) was 0% throughout.

`COC(=O)[C@H]1[C@@H](c2ccccc2OC)N[C@@](C)(C(=O)N2CCC[C@H]2C(=O)NC[C@H]2O[C@@H](n3ccc(=O)[nH]c3=O)[C@H](O)[C@@H]2O)[C@@H]1C(=O)OC` (mixture of isomers) [20c]: the values for the inhibition at 1000 µM (in assay [1]; on E. coli MurG) were 0% and 22%, respectively.

As to `CCN1C(=O)C2[C@@H](C1=O)[C@@H](C(O)CO)N[C@@]2(C)C(=O)N1CCC[C@H]1C(=O)NC[C@H]1O[C@@H](n2ccc(=O)[nH]c2=O)[C@H](O)[C@@H]1O` (mixture of isomers) [20d], the inhibition at 1000 µM (in assay [1]; at E. coli MurG) was 0% each time.

In the case of `COc1ccccc1[C@H]1N[C@@](C)(COC(=O)CCC(=O)OC[C@H]2O[C@@H](n3ccc(=O)[nH]c3=O)[C@H](O)[C@@H]2O)[C@H]2C(=O)N(c3ccccc3)C(=O)[C@@H]12` (mixture of isomers) [compound 25], the inhibition at 1000 µM in assay [1] is 0%; on E. coli MurG, 15%. Besides, on E. coli MurG, the “Inhibition of / binding to MurG (in words)” value (“Inhibition of / binding” below) is recorded as “weak activity”.

Consider `COC(=O)C1C(c2ccc(OC)c(OC)c2)NC2(C)C(=O)N(CC(=O)NCC3OC(n4ccc(=O)[nH]c4=O)C(O)C3O)C(=O)C12` (centres unmarked) [16d], for which the inhibition at 1000 µM worked out at 0% in assay [1] and 26% on E. coli MurG. Further, inhibition against E. coli MurG was half-maximal at 4 mM (IC50).

For the molecule `COc1ccccc1[C@@H]1[C@@H]2C(=O)N(c3ccccc3)C(=O)[C@@H]2[C@H](C(=O)N(C)CC(=O)NC[C@H]2O[C@@H](n3ccc(=O)[nH]c3=O)[C@H](O)[C@@H]2O)N1C` [compound 19], on E. coli MurG, the “Inhibition of / binding” value was “did bind to MurG” and the inhibition at 1000 µM is 31%.

As to `COc1ccccc1[C@H]1N[C@@](C)(COC(=O)CC(=O)OC[C@H]2O[C@@H](n3ccc(=O)[nH]c3=O)[C@H](O)[C@@H]2O)[C@H]2C(=O)N(c3ccccc3)C(=O)[C@@H]12` [compound 24], the inhibition at 1000 µM in assay [1] is 0%; on E. coli MurG it was 17%. Further, the “Inhibition of / binding” value at E. coli MurG is listed as “weak activity”.

Turning to ramoplanin [reference compound], the “Inhibition of MurG” value at E. coli MurG (20 μM ramoplanin) is more than 90%.
